Target: T1, PPARα (Homo sapiens, UniProt Q07869)
T1 construct: expressed in transfected cells; host or cells: Hela cells
T1 sequence (Q07869 1-468): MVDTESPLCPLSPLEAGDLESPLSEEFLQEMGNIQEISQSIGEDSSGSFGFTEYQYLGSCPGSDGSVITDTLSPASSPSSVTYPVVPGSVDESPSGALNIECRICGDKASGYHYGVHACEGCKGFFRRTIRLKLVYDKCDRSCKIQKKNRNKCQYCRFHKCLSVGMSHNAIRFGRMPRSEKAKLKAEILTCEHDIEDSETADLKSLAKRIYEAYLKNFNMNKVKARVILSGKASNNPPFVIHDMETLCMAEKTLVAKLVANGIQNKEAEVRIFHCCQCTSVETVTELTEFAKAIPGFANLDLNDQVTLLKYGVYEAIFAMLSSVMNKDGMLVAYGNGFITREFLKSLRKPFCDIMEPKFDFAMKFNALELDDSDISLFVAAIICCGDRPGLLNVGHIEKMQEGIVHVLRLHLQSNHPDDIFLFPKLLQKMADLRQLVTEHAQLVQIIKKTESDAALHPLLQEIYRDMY
Experiment: Hela cell/luciferase reporter gene method, PPARα agonist activity
Assay type: cell-based
Conditions: Hela cells, pPPRE3-TK-Luciferase reporter, 24 hrs incubation; read-out: agonistic activity on PPAα (EC50)
Method: (§1) This example measures the biological activity of a PPAR agonist using the Hela cell/luciferase reporter gene method.
(§2) The target plasmids PCMV PPARα (Ampicillin+), PCMV PPARγ (Ampicillin+), PCMV PPARδ (Ampicillin+), and pPPRE3-TK-Luciferase (Ampicillin+) were introduced into DH5a competent cells by heat shock treatment, respectively. After being incubated for 1 hour at 37° C. with shaking (180 rpm), the cells were inoculated on LB agar solid medium containing antibiotic Ampicillin, and invertedly cultured at 37° C. for 12-16 hours. Then the monoclonal colony cultured on the medium was taken and inoculated into LB liquid medium for expanded culture. The desired plasmid was extracted from the resulting bacterial solution with a Plasmid Midi Kit (Qiagen; #12143). The plasmid obtained by centrifugation was suspended in TE buffer, and the plasmid concentration was measured and the mixture was stored at −20° C. Hela cells in the exponential phase were seeded in 6-well plates (8-10^5 cells/well), and after 6-8 hours of culture, the cells were transfected using Lipofectamine® 3000 Transfection Reagent (Invitrogen; #L3000015). A plasmid containing a PPAR binding site (peroxisome proliferator response element, PPRE) and a firefly luciferase gene (pPPRE3-TK-Luciferase) and PPAR expression vector were co-transfected into a Hela cell with a total amount of plasmid DNA of 2.5 ug (the mass ratio of each PPAR expression vector is pPPRE:PPARα=6:1, pPPRE:PPARδ=8:1, and pPPRE:PPARγ=2:1) to construct a drug screening cell model for PPAR agonists. PPAR was binded to the ligand and then binded to the peroxisome proliferator response element (PPRE), thereby initiating downstream firefly luciferase expression and its expression intensity was directly proportional to the degree of PPAR activation. The cells after 24 hours transfection were prepared into a cell suspension with a cell concentration of […] by a complete culture solution, and seeded into a 96-well plate with 100 ul per well. After overnight culture, the medium was changed to a medium containing 1% FBS. 10 mM candidate compound stock (1000×) were 4-fold diluted in DMSO for 8 points, then supplemented with medium containing 1% FBS to a final concentration of 50 uM (5×) by addition of 25 μl of 5× compound diluent to each well in different concentration gradients and incubated under 37° C., 5% CO2 incubator for 24 hrs. The 96-well plate was taken out and 30 μl of Bright-Glo™ Luciferase Assay System (Promega #E2620) was added to each well. The Luciferase luminescence intensity was measured by a SynergyH1 full-function microplate detector. The obtained data was used to calculate EC50 using GraphPad Prism 5.0 software to determine the biological activity of the compound.
(§3) The agonistic activity of the compounds synthesized in Examples 1-41 on PPAR is represented by EC50 (see Table 1). EC50 refers to the drug concentration at which the compound has a 50% increase in the agonistic activity of the measured PPAR. The compound numbers in Table 1 correspond to the compound numbers in Examples 1-41.

| Structure (SMILES) | EC50 [nM] |
| --- | --- |
| COc1cc(/C=C/C(=O)c2oc3cc(SC)ccc3c2C)cc(OC)c1OC(C)(C)C(=O)O [Compound 102, (E)-2-(2,6-dimethoxy-4-(3-(3-methyl-6-(methylthio)benzofuran-2-yl)-3-oxoprop-1-en-1-yl)phenoxy)-2-methylpropanoic acid] | 191 |
| CSc1ccc(C(=O)/C=C/c2cc(C)c(OCC(=O)O)c(C)c2)c2occc12 [Compound 13, (E)-2-(2,6-dimethyl-4-(3-(4-(methylthio)benzofuran-7-yl)-3-oxoprop-1-en-1-yl)phenoxy)acetic acid] | 476 |
| CCSc1ccc2c(C)c(C(=O)/C=C/c3cc(C)c(OC(C)(C)C(=O)O)c(C)c3)sc2c1 [Compound 94, (E)-2-(4-(3-(6-(ethylthio)-3-methylbenzo[b]thiophen-2-yl)-3-oxoprop-1-en-1-yl)-2,6-dimethylphenoxy)-2-methylpropanoic acid] | 41.9 |
| CSc1ccc2cc(C(=O)/C=C/c3cc(C(C)C)c(OC(C)(C)C(=O)O)c(C(C)C)c3)oc2c1 [Compound 101, (E)-2-(2,6-diisopropyl-4-(3-(6-(methylthio)benzofuran-2-yl)-3-oxoprop-1-en-1-yl)phenoxy)-2-methylpropanoic acid] | 477 |
| Cc1cc(/C=C/C(=O)c2ccc3scnc3c2)cc(C)c1OC(C)(C)C(=O)O [Compound 39, (E)-2-(4-(3-(benzo[d]thiazol-5-yl)-3-oxoprop-1-en-1-yl)-2,6-dimethylphenoxy)-2-methylpropanoic acid] | 366 |
| Cc1cc(/C=C/C(=O)c2oc3cc(SCC(C)C)ccc3c2C)cc(C)c1OC(C)(C)C(=O)O [Compound 76, (E)-2-(4-(3-(6-(isobutylthio)-3-methylbenzofuran-2-yl)-3-oxoprop-1-en-1-yl)-2,6-dimethylphenoxy)-2-methylpropanoic acid] | 58.9 |
| CSc1ccc2cc(C(=O)/C=C/c3cc(C)c(OCC(=O)O)c(C)c3)oc2c1 [Compound 57, (E)-2-(2,6-dimethyl-4-(3-(6-(methylthio)benzofuran-2-yl)-3-oxoprop-1-en-1-yl)phenoxy)acetic acid] | 1180 |
| CCOc1ccc2cc(C(=O)/C=C/c3cc(C)c(OC(C)(C)C(=O)O)c(C)c3)oc2c1 [Compound 44, (E)-2-(4-(3-(6-ethoxylbenzofuran-2-yl)-3-oxoprop-1-en-1-yl)-2,6-dimethylphenoxy)-2-methylpropanoic acid] | 7.67 |
| CSc1ccc2c(C)c(C(=O)/C=C/c3cc(C(C)C)c(OC(C)(C)C(=O)O)c(C(C)C)c3)oc2c1 [Compound 104, (E)-2-(2,6-diisopropyl-4-(3-(3-methyl-6-(methylthio)benzofuran-2-yl)-3-oxoprop-1-en-1-yl)phenoxy)-2-methylpropanoic acid] | 382 |
| CSc1ccc2cc(C(=O)/C=C/c3cc(C)c(OC(C)(C)C(=O)O)c(C)c3)[nH]c2c1 [Compound 88, (E)-2-(2,6-dimethyl-4-(3-(6-(methylthio)-1H-indol-2-yl)-3-oxoprop-1-en-1-yl)phenoxy)-2 methylpropanoic acid] | 2440 |
| Cc1cc(/C=C/C(=O)c2cc3ccccc3o2)cc(C)c1OC(C)(C)C(=O)O [Compound 49, (E)-2-(4-(3-(benzofuran-2-yl)-3-oxoprop-1-en-1-yl)-2,6-dimethylphenoxy)-2-methylpropanoic acid] | 874 |
| CCCSc1ccc2c(C)c(C(=O)/C=C/c3cc(C)c(OC(C)(C)C(=O)O)c(C)c3)oc2c1 [Compound 75, (E)-2-(2,6-dimethyl-4-(3-(3-methyl-6-(propylthio)benzofuran-2-yl)-3-oxoprop-1-en-1-yl)phenoxy)-2-methylpropanoic acid] | 121 |
| COc1cc(/C=C/C(=O)c2cc3ccc(SC)cc3o2)cc(OC)c1OC(C)(C)C(=O)O [Compound 99, (E)-2-(2,6-dimethoxy-4-(3-(6-(methylthio)benzofuran-2-yl)-3-oxoprop-1-en-1-yl)phenoxy)-2-methylpropanoic acid] | 52.1 |
| CSc1ccc2c(C(F)(F)F)c(C(=O)/C=C/c3cc(C)c(OC(C)(C)C(=O)O)c(C)c3)oc2c1 [Compound 73, (E)-2-(2,6-dimethyl-4-(3-(6-(methylthio)-3-(trifluoromethyl)benzofuran-2-yl)-3-oxoprop-1-en-1-yl)phenoxy)-2-methylpropanoic acid] | 3.8 |

More lines, now with the values ahead:

| EC50 [nM] | Structure (SMILES) |
| --- | --- |
| 105 | CSc1ccc2c(C(C)C)c(C(=O)/C=C/c3cc(C)c(OC(C)(C)C(=O)O)c(C)c3)oc2c1 [Compound 64, (E)-2-(4-(3-(3-isopropyl-6-(methylthio)benzofuran-2-yl)-3-oxoprop-1-en-1-yl)-2,6-dimethylphenoxy)-2-methylpropanoic acid] |
| 165 | CSc1ccc(C(=O)/C=C/c2cc(C)c(OC(C)(C)C(=O)O)c(C)c2)c2oc(C)nc12 [Compound 20, (E)-2-(2,6-dimethyl-4-(3-(2-methyl-4-(methylthio)benzo[d]oxazol-7-yl)-3-oxoprop-1-en-1-yl)phenoxy)-2-methylpropanoic acid] |
| 352 | CSc1cccc2cc(C(=O)/C=C/c3cc(C)c(OC(C)(C)C(=O)O)c(C)c3)oc12 [Compound 58, (E)-2-(2,6-dimethyl-4-(3-(7-(methylthio)benzofuran-2-yl)-3-oxoprop-1-en-1-yl)phenoxy)-2-methylpropanoic acid] |
| 70.2 | CSc1ccc2c(C)c(C(=O)/C=C/c3cc(C)c(OC(C)(C)C(=O)O)c(C)c3)sc2c1 [Compound 82, (E)-2-(2,6-dimethyl-4-(3-(3-methyl-6-(methylthio)benzo[b]thiophen-2-yl)-3-oxoprop-1-en-1-yl)phenoxy)-2-methylpropanoic acid] |
| 121 | Cc1cc(/C=C/C(=O)c2oc3cc(SC(C)C)ccc3c2C)cc(C)c1OC(C)(C)C(=O)O [Compound 77, (E)-2-(4-(3-(6-(isopropylthio)-3-methylbenzofuran-2-yl)-3-oxoprop-1-en-1-yl)-2,6-dimethylphenoxy)-2-methylpropanoic acid] |
| 46.8 | Cc1cc(/C=C/C(=O)c2ccc(SCC(C)C)c3ccoc23)cc(C)c1OC(C)(C)C(=O)O [Compound 9, (E)-2-(4-(3-(4-(isobutylthio)benzofuran-7-yl)-3-oxoprop-1-en-1-yl)-2,6-dimethylphenoxy)-2-methylpropanoic acid] |
| 948 | CNc1ccc(C(=O)/C=C/c2cc(C)c(OC(C)(C)C(=O)O)c(C)c2)c2occc12 [Compound 2, (E)-2-(2,6-dimethyl-4-(3-(4-(methylamino)benzofuran-7-yl)-3-oxoprop-1-en-1-yl)phenoxy)-2-methylpropanoic acid] |

Target: T2, PPARγ (Homo sapiens, UniProt P37231)
T2 construct: expressed in transfected cells; host or cells: Hela cells
T2 sequence (P37231 1-505): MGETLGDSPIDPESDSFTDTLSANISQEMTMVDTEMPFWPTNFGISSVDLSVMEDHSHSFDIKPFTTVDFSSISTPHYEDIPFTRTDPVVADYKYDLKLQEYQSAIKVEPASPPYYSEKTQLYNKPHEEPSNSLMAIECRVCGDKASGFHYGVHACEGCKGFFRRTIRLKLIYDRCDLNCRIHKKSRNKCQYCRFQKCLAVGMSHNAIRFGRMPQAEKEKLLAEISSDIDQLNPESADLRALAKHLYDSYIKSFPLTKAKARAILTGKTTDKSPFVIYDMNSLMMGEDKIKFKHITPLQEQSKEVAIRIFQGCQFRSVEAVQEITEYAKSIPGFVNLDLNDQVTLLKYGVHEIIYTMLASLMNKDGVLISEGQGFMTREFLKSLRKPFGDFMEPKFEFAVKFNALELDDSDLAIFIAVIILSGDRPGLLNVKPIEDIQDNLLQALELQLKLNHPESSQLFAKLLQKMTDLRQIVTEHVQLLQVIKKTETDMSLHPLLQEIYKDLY
Experiment: Hela cell/luciferase reporter gene method, PPARγ agonist activity
Assay type: cell-based
Conditions: Hela cells, pPPRE3-TK-Luciferase reporter, 24 hrs incubation; read-out: agonistic activity on PPARγ (EC50)
Method: as §1, §2, §3

| EC50 [nM] | Structure (SMILES) |
| --- | --- |
| 3410 | CSc1ccc(C(=O)/C=C/c2cc(C)c(OCC(=O)O)c(C)c2)c2occc12 [Compound 13, (E)-2-(2,6-dimethyl-4-(3-(4-(methylthio)benzofuran-7-yl)-3-oxoprop-1-en-1-yl)phenoxy)acetic acid] |

From patent US11306102B2, “1,3-di-substituted ketene compound and application thereof” (BEBETTER MED INC., priority 2017, dated 2022)
